From patent US9718802B2, “Crystal form of dabigatran etexilate mesylate and preparation method and use thereof” (Zhejiang Hisun Pharmaceutical Co., Ltd., priority 2014, dated 2017)
Entries after “also recorded” stand apart in the source; their conditions may differ.

Columns and labels:
Assay type in all cases: physicochemical
[1] = Test 3 stability data under −20° C. for 6 months (liquid chromatography); settings: in % (unit assumed)
Procedure: (§1) Liquid chromatography test conditions are: chromatographic column is Merck Purospher®STAR RP-18 endcapped 250×4.6 mm, 5 μm; mobile phase A: acetonitrile, mobile phase B: 4 ml phosphoric acid added in 1 L water, the pH is adjusted to 3.5 by triethylamine; detecting wavelength: 310 nm; flow rate: 1 ml/min; sample load: 10 μl; column temperature: 30° C., liquid chromatography conditions are shown in table 4:
(§2) The inventor has tested the chemical stability of the crystal form M and crystal form N under normal temperature, cold storage and freezing conditions and compared the chemical stability with crystal form I, crystal form II and semihydrate crystal form, see tests 1-3. In the tests, crystal form I, crystal form II and semihydrate crystal form are all prepared according to the method disclosed in patent document U.S. Pat. No. 7,932,273B2.
Test 3 stability data under −20° C. for 6 months (see table 7)

[2] = Test 1 stability data under 25° C. for 6 months (liquid chromatography); settings: for Major peak: 25° C., in % (unit assumed); for chemical stability compared with crystal form I, crystal form II and the semihydrate crystal form: normal temperature and cold storage conditions
Procedure: as §1, §2

[3] = Test 2 stability data under 5° C. for 6 months (liquid chromatography); settings: for Major peak: 5° C., in % (unit assumed); for storage stability: cold storage and freezing conditions
Procedure: as §1, §2
Test 2 stability data under 5° C. for 6 months (see table 6)

[4] = Crystal form of samples after 6 months stability tests under different temperature; settings: 6 months under different temperature
[5] = Test 4 stability of crystal form N in 95% ethanol solution (XRD); settings: stirred for 3, 4 and 5 hours
Procedure: In the following examples and tests, the powder X-ray diffractometer and the test conditions are: X-ray diffractomer model Rigaku D/max-2200 Cu target; operation method: scan rate 4°/min, scan width 0.01°.
Test 4 the stability in formulation of crystal form N
This indicate that the crystal form N is stable in the 95% ethanol solution, therefore, it has great stability in the related formulation processes.

## CCCCCCOC(=O)/N=C(/N)c1ccc(NCc2nc3cc(C(=O)N(CCC(=O)OCC)c4ccccn4)ccc3n2C)cc1.CS(=O)(=O)O [Crystal form I, 3-[(2-{[4-(hexaoxycarbonylamino-imino-methyl)-phenylamino]-methyl}-1-methyl-1H-benzimidazole-5-carbonyl)-pyridine-2-yl-amino-]-ethyl propionate-mesylate]
[1]; 1 month
  Major peak: 99.693
[1]; 2 months
  Major peak: 99.694
[1]; 3 months
  Major peak: 99.690
[1]; 4 months
  Major peak: 99.692
[1]; 5 months
  Major peak: 99.691
[1]; 6 months
  Major peak: 99.692
[2]; 0 month
  Major peak: 99.690
[2]; 1 month
  Major peak: 99.604
[2]; 2 months
  Major peak: 99.574
[2]; 3 months
  Major peak: 99.468
[2]; 4 months
  Major peak: 99.308
[2]; 5 months
  Major peak: 99.309
[2]; 6 months
  Major peak: 99.220
[3]; 0 month
  Major peak: 99.676
[3]; 1 month
  Major peak: 99.655
[3]; 2 months
  Major peak: 99.651
[3]; 3 months
  Major peak: 99.652
[3]; 4 months
  Major peak: 99.651
[3]; 5 months
  Major peak: 99.649
[3]; 6 months
  Major peak: 99.643

## CCCCCCOC(=O)/N=C(/N)c1ccc(NCc2nc3cc(C(=O)N(CCC(=O)OCC)c4ccccn4)ccc3n2C)cc1.CS(=O)(=O)O [Crystal form II, 3-[(2-{[4-(hexaoxycarbonylamino-imino-methyl)-phenylamino]-methyl}-1-methyl-1H-benzimidazole-5-carbonyl)-pyridine-2-yl-amino-]-ethyl propionate-mesylate]
[1]; 1 month
  Major peak: 99.630
[1]; 2 months
  Major peak: 99.633
[1]; 3 months
  Major peak: 99.634
[1]; 4 months
  Major peak: 99.630
[1]; 5 months
  Major peak: 99.632
[1]; 6 months
  Major peak: 99.632
[2]; 0 month
  Major peak: 99.646
[2]; 1 month
  Major peak: 99.493
[2]; 2 months
  Major peak: 99.408
[2]; 3 months
  Major peak: 99.290
[2]; 4 months
  Major peak: 99.069
[2]; 5 months
  Major peak: 99.029
[2]; 6 months
  Major peak: 98.911
[3]; 0 month
  Major peak: 99.631
[3]; 1 month
  Major peak: 99.630
[3]; 2 months
  Major peak: 99.643
[3]; 3 months
  Major peak: 99.640
[3]; 4 months
  Major peak: 99.641
[3]; 5 months
  Major peak: 99.598
[3]; 6 months
  Major peak: 99.592

## CCCCCCOC(=O)/N=C(/N)c1ccc(NCc2nc3cc(C(=O)N(CCC(=O)OCC)c4ccccn4)ccc3n2C)cc1.CS(=O)(=O)O [Crystal form M, 3-[(2-{[4-(hexaoxycarbonylamino-imino-methyl)-phenylamino]-methyl}-1-methyl-1H-benzimidazole-5-carbonyl)-pyridine-2-yl-amino-]-ethyl propionate-mesylate]
[4]
  crystal form of samples after stability tests: not changed
[1]; 1 month
  Major peak: 99.722
[1]; 2 months
  Major peak: 99.728
[1]; 3 months
  Major peak: 99.737
[1]; 4 months
  Major peak: 99.737
[1]; 5 months
  Major peak: 99.739
[1]; 6 months
  Major peak: 99.737
[2]; 0 month
  Major peak: 99.711
[2]; 1 month
  Major peak: 99.632
[2]; 2 months
  Major peak: 99.614
[2]; 3 months
  Major peak: 99.595
[2]; 4 months
  Major peak: 99.582
[2]; 5 months
  Major peak: 99.574
[2]; 6 months
  Major peak: 99.541
[2]
  chemical stability compared with crystal form I, crystal form II and the semihydrate crystal form: better chemical stability
[3]; 0 month
  Major peak: 99.654
[3]; 1 month
  Major peak: 99.650
[3]; 2 months
  Major peak: 99.648
[3]; 3 months
  Major peak: 99.651
[3]; 4 months
  Major peak: 99.649
[3]; 5 months
  Major peak: 99.649
[3]; 6 months
  Major peak: 99.648
[3]
  storage stability: can be stored stable for a long time

## CCCCCCOC(=O)/N=C(/N)c1ccc(NCc2nc3cc(C(=O)N(CCC(=O)OCC)c4ccccn4)ccc3n2C)cc1.CS(=O)(=O)O [Crystal form N, 3-[(2-{[4-(hexaoxycarbonylamino-imino-methyl)-phenylamino]-methyl}-1-methyl-1H-benzimidazole-5-carbonyl)-pyridine-2-yl-amino-]-ethyl propionate-mesylate]
[4]
  crystal form of samples after stability tests: not changed
[1]; 1 month
  Major peak: 99.723
[1]; 2 months
  Major peak: 99.726
[1]; 3 months
  Major peak: 99.734
[1]; 4 months
  Major peak: 99.733
[1]; 5 months
  Major peak: 99.734
[1]; 6 months
  Major peak: 99.733
[5]
  stability in 95% ethanol solution (X-Ray powder diffractograms): not changed within 5 hours; also recorded: very good stability
[2]; 0 month
  Major peak: 99.701
[2]; 1 month
  Major peak: 99.631
[2]; 2 months
  Major peak: 99.618
[2]; 3 months
  Major peak: 99.601
[2]; 4 months
  Major peak: 99.580
[2]; 5 months
  Major peak: 99.572
[2]; 6 months
  Major peak: 99.536
[2]
  chemical stability compared with crystal form I, crystal form II and the semihydrate crystal form: better chemical stability
[3]; 0 month
  Major peak: 99.660
[3]; 1 month
  Major peak: 99.659
[3]; 2 months
  Major peak: 99.655
[3]; 3 months
  Major peak: 99.652
[3]; 4 months
  Major peak: 99.650
[3]; 5 months
  Major peak: 99.650
[3]; 6 months
  Major peak: 99.649
[3]
  storage stability: can be stored stable for a long time

## CCCCCCOC(=O)/N=C(/N)c1ccc(NCc2nc3cc(C(=O)N(CCC(=O)OCC)c4ccccn4)ccc3n2C)cc1.CS(=O)(=O)O [Semihydrate crystal form, 3-[(2-{[4-(hexaoxycarbonylamino-imino-methyl)-phenylamino]-methyl}-1-methyl-1H-benzimidazole-5-carbonyl)-pyridine-2-yl-amino-]-ethyl propionate-mesylate]
[1]; 1 month
  Major peak: 99.834
[1]; 2 months
  Major peak: 99.833
[1]; 3 months
  Major peak: 99.836
[1]; 4 months
  Major peak: 99.839
[1]; 5 months
  Major peak: 99.840
[1]; 6 months
  Major peak: 99.836
[2]; 0 month
  Major peak: 99.847
[2]; 1 month
  Major peak: 99.707
[2]; 2 months
  Major peak: 99.631
[2]; 3 months
  Major peak: 99.587
[2]; 4 months
  Major peak: 99.447
[2]; 5 months
  Major peak: 99.334
[2]; 6 months
  Major peak: 99.254
[3]; 0 month
  Major peak: 99.828
[3]; 1 month
  Major peak: 99.827
[3]; 2 months
  Major peak: 99.830
[3]; 3 months
  Major peak: 99.826
[3]; 4 months
  Major peak: 99.831
[3]; 5 months
  Major peak: 99.827
[3]; 6 months
  Major peak: 99.832
